Assay: mn = molality of the nth substance listed, in mol/kg
Settings: 100 kPa, Liquid; for speed of sound: Frequency=3 MHz, Single path-length method; for mass density: Vibrating tube method

OCC(O)CO [glycerol] + O
Settings	mass density, 293.15 K [kg/m3]	mass density, 298.15 K [kg/m3]	mass density, 303.15 K [kg/m3]	mass density, 308.15 K [kg/m3]	speed of sound, 293.15 K [m/s]	speed of sound, 298.15 K [m/s]	speed of sound, 303.15 K [m/s]	speed of sound, 308.15 K [m/s]
m1 = 0.01	998.452	997.308	995.869	994.253	1483.2	1497	1509.3	1519.9
m1 = 0.03	998.865	997.707	996.304	994.684	1484	1497.8	1510	1520.6
m1 = 0.05	999.29	998.124	996.72	995.094	1484.8	1498.6	1510.7	1521.2
m1 = 0.07	999.691	998.513	997.109	995.469	1485.5	1499.3	1511.4	1521.8

O [water] + OCC(O)CO
m2 = 0
Settings	speed of sound [m/s]
298.15 K	1495.8
308.15 K	1519.1

From the NIST ThermoML archive (doi:10.1016/j.jct.2018.07.015)
